# According to patent publication US12662489B2 (Sitryx Therapeutics Limited, priority 2023, dated 2026):
# Tests used:
# [1] = target: T1, MTHFD2 recombinant human enzyme (Homo sapiens, UniProt P13995); experiment: MTHFD2 inhibition assay (NAD(P)H-Glo luminescence); conditions: for MTHFD1/MTHFD2 IC50 ratio: selectivity of MTHFD2 inhibition over MTHFD1, band
# T1 sequence (P13995 36-350): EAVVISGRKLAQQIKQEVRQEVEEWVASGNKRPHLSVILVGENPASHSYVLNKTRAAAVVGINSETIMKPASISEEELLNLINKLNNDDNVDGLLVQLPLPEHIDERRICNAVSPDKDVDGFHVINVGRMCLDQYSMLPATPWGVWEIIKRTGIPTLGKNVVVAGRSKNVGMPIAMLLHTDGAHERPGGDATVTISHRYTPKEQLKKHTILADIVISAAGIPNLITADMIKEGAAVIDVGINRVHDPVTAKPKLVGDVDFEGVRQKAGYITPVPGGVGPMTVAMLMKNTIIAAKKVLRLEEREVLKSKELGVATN
# human CD4+ T cells = experiment: Human CD4+ T-cell proliferation assay (CFSE, CD3/28 beads); conditions: read-out: Proliferation IC50
# [2] = target: T2, MTHFD1 recombinant human enzyme (Homo sapiens, UniProt P11586); experiment: MTHFD1 inhibition assay (NAD(P)H-Glo luminescence); conditions: MTHFD1 IC50, recombinant human enzyme 200 nM, NADP, band
# T2 sequence (P11586 2-291 limits assumed): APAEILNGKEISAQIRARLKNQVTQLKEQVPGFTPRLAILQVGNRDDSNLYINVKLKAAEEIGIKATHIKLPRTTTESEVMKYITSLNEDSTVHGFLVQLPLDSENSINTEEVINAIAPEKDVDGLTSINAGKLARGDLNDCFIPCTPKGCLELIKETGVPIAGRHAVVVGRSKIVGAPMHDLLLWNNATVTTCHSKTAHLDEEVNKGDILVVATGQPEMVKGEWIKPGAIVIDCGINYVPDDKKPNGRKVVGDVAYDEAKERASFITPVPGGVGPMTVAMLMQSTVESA
Compound,IC50 [1] [nM],IC50 [2] [nM],MTHFD1/MTHFD2 IC50 ratio [1],IC50 (human CD4+ T cells) [nM]
"COC[C@H]1CN(c2cc(Cl)c3c4c(c(=O)oc3c2C)CN(C(=O)c2ccc(C(=O)NS(=O)(=O)N3C5CCC3CC5)c(OC)c2)CC4)CCN1C [Example 321, (R)-N-((7-azabicyclo[2.2.1]heptan-7-yl)sulfonyl)-4-(10-chloro-8-(3-(methoxymethyl)-4-methylpiperazin-1-yl)-7-methyl-5-oxo-1,3,4,5-tetrahydro-2H-chromeno[3,4-c]pyridine-3-carbonyl)-2-methoxybenzamide]",10 to 100,1000 to 5000,J (>30),30 to 100
"COC[C@H]1CN(c2cc(C)c3c4c(c(=O)oc3c2C)CN(C(=O)c2cc(N)c(C(=O)NS(=O)(=O)N3CCCC3)cc2F)CC4)CCN1C [Example 196, (R)-2-amino-5-fluoro-4-(8-(3-(methoxymethyl)-4-methylpiperazin-1-yl)-7,10-dimethyl-5-oxo-1,3,4,5-tetrahydro-2H-chromeno[3,4-c]pyridine-3-carbonyl)-N-(pyrrolidin-1-ylsulfonyl)benzamide]",10 to 100,1000 to 5000,J (>30),> 5000
"COC[C@H]1CN(c2cc(Cl)c3c4c(c(=O)oc3c2C)CN(C(=O)c2cc(N(C)C)c(C(=O)NS(=O)(=O)N3C5CCC3CC5)cc2F)CC4)CCN1C [Example 316, (R)-N-((7-azabicyclo[2.2.1]heptan-7-yl)sulfonyl)-4-(10-chloro-8-(3-(methoxymethyl)-4-methylpiperazin-1-yl)-7-methyl-5-oxo-1,3,4,5-tetrahydro-2H-chromeno[3,4-c]pyridine-3-carbonyl)-2-(dimethylamino)-5-fluorobenzamide]",10 to 100,1000 to 5000,J (>30),30 to 100
"COC[C@H]1CN(c2cc(Cl)c3c4c(c(=O)oc3c2C)CN(C(=O)c2cc(N(C)C)c(C(=O)NS(=O)(=O)N3CC5(CCC5)C3)cc2F)CC4)CCN1C [Example 318, (R)-N-((2-azaspiro[3.3]heptan-2-yl)sulfonyl)-4-(10-chloro-8-(3-(methoxymethyl)-4-methylpiperazin-1-yl)-7-methyl-5-oxo-1,3,4,5-tetrahydro-2H-chromeno[3,4-c]pyridine-3-carbonyl)-2-(dimethylamino)-5-fluorobenzamide]",1 to 10,100 to 1000,J (>30),10 to 30
"CCOc1cc(C(=O)N2CCc3c(c(=O)oc4c(C)c(N5CCN(C)[C@@H](COC)C5)cc(C)c34)C2)c(F)cc1C(=O)NS(=O)(=O)N1CC2CC2C1 (stereo partly drawn) [Example 219, N-((3-azabicyclo[3.1.0]hexan-3-yl)sulfonyl)-2-ethoxy-5-fluoro-4-(8-((R)-3-(methoxymethyl)-4-methylpiperazin-1-yl)-7,10-dimethyl-5-oxo-1,3,4,5-tetrahydro-2H-chromeno[3,4-c]pyridine-3-carbonyl)benzamide]",10 to 100,10 to 100,G (^ 3 to 9.0),10 to 30
"COC[C@H]1CN(c2cc(C)c3c4c(c(=O)oc3c2C)CN(C(=O)c2cc(N(C)C)c(C(=O)NS(=O)(=O)N3C5CCC3COC5)cc2F)CC4)CCN1C [Example 256, N-((3-oxa-8-azabicyclo[3.2.1]octan-8-yl)sulfonyl)-2-(dimethylamino)-5-fluoro-4-(8-((R)-3-(methoxymethyl)-4-methylpiperazin-1-yl)-7,10-dimethyl-5-oxo-1,3,4,5-tetrahydro-2H-chromeno[3,4-c]pyridine-3-carbonyl)benzamide]",1 to 10,1000 to 5000,J (>30),10 to 30
"COC[C@H]1CN(c2cc(Cl)c3c4c(c(=O)oc3c2C)CN(C(=O)c2cc(N(C)C)c(C(=O)NS(=O)(=O)N3CC[C@@H](F)C3)cc2F)CC4)CCN1C [Example 303, 4-(10-chloro-8-((R)-3-(methoxymethyl)-4-methylpiperazin-1-yl)-7-methyl-5-oxo-1,3,4,5-tetrahydro-2H-chromeno[3,4-c]pyridine-3-carbonyl)-2-(dimethylamino)-5-fluoro-N-(((R)-3-fluoropyrrolidin-1-yl)sulfonyl)benzamide]",1 to 10,100 to 1000,J (>30),10 to 30

# More lines, main results first:
IC50 [1] [nM],IC50 [2] [nM],MTHFD1/MTHFD2 IC50 ratio [1],Compound,IC50 (human CD4+ T cells) [nM]
10 to 100,100 to 1000,–,"COC[C@H]1CN(c2cc(C)c3c4c(c(=O)oc3c2C)CN(C(=O)c2ccc(C(=O)NS(=O)(=O)N3CCC5(CC3)CC5)c(OC)c2F)CC4)CCN1C [Example 155, (R)-N-((6-azaspiro[2.5]octan-6-yl)sulfonyl)-3-fluoro-2-methoxy-4-(8-(3-(methoxymethyl)-4-methylpiperazin-1-yl)-7,10-dimethyl-5-oxo-1,3,4,5-tetrahydro-2H-chromeno[3,4-c]pyridine-3-carbonyl)benzamide]",10 to 30
10 to 100,100 to 1000,J (>30),"COC[C@H]1CN(c2cc(Cl)c3c4c(c(=O)oc3c2C)CN(C(=O)c2cc(N(C)C)c(C(=O)NS(=O)(=O)N3CC[C@H](F)C3)cc2F)CC4)CCN1C [Example 302, 4-(10-chloro-8-((R)-3-(methoxymethyl)-4-methylpiperazin-1-yl)-7-methyl-5-oxo-1,3,4,5-tetrahydro-2H-chromeno[3,4-c]pyridine-3-carbonyl)-2-(dimethylamino)-5-fluoro-N-(((S)-3-fluoropyrrolidin-1-yl)sulfonyl)benzamide]",10 to 30
1 to 10,100 to 1000,H (>9.0 to 30),"COC[C@H]1CN(c2cc(C)c3c4c(c(=O)oc3c2C)CN(C(=O)c2cc(N(C)C)c(C(=O)NS(=O)(=O)N3CC[C@@H](F)C3)cc2F)CC4)CCN1C [Example 314, 2-(dimethylamino)-5-fluoro-N-(((R)-3-fluoropyrrolidin-1-yl)sulfonyl)-4-(8-((R)-3-(methoxymethyl)-4-methylpiperazin-1-yl)-7,10-dimethyl-5-oxo-1,3,4,5-tetrahydro-2H-chromeno[3,4-c]pyridine-3-carbonyl)benzamide]",1 to 10
1 to 10,100 to 1000,J (>30),"COC[C@H]1CN(c2cc(C)c3c4c(c(=O)oc3c2C)CN(C(=O)c2cc(N(C)C)c(C(=O)NS(=O)(=O)N(C)C3CC3)cc2F)CC4)CCN1C [Example 257, (R)-N-(N-cyclopropyl-N-methylsulfamoyl)-2-(dimethylamino)-5-fluoro-4-(8-(3-(methoxymethyl)-4-methylpiperazin-1-yl)-7,10-dimethyl-5-oxo-1,3,4,5-tetrahydro-2H-chromeno[3,4-c]pyridine-3-carbonyl)benzamide]",1 to 10
1 to 10,10 to 100,J (>30),"COC[C@H]1CN(c2cc(C)c3c4c(c(=O)oc3c2C)CN(C(=O)c2cc(OC3CC3)c(C(=O)NS(=O)(=O)N3CCCC3)cc2F)CC4)CCN1C [Example 263, (R)-2-cyclopropoxy-5-fluoro-4-(8-(3-(methoxymethyl)-4-methylpiperazin-1-yl)-7,10-dimethyl-5-oxo-1,3,4,5-tetrahydro-2H-chromeno[3,4-c]pyridine-3-carbonyl)-N-(pyrrolidin-1-ylsulfonyl)benzamide]",10 to 30
